According to PMC6220303 (EMBO Molecular Medicine, 2018):
Read-outs that look alike come from different tables or passages of the source.

Assay: clinical
Assay type: in vivo, human
Conditions: for Mean concentration: AUC divided by 24 hours; for Tmax / Cmax / AUC(0-t) / half-life / concentration at 3 months / AUC(0-inf): human, plasma, oral; for concentration at 3 months: read-out: steady-state plasma level
Procedure: The lower limit of quantification (LLOQ) was 1 ng/ml in plasma and 2 ng/ml in urine and CSF, except for the 3‐month study where the method for CSF was more sensitive (LLOQ 0.1 ng/ml). Plasma PK parameters were calculated using actual recorded sampling times and non‐compartmental methods with Phoenix WinNonlin version 6.4 (Certara, Inc., Princeton, NJ, USA).
For further details, see the Appendix Table S10 in Appendix and the accompanying clinical protocols synopsis (Appendix Table S11).

Question: Which results are given for `C[C@@]1(c2nc(NC(=O)c3ncc(C(F)(F)F)cc3Cl)ccc2F)CO[C@@](C)(C(F)(F)F)C(N)=N1` [CNP520]?
Answer: Mean concentration (2 mg, 3 months, Day 91): 25.6 nM; Mean concentration (10 mg, 3 months, Day 91): 123 nM; Mean concentration (10 mg, 14 days, Day 14): 114 nM; Mean concentration (30 mg, 14 days, Day 14): 292 nM; Mean concentration (35 mg, 3 months, Day 91): 371 nM; Mean concentration (85 mg, 3 months, Day 91): 910 nM; Mean concentration (90 mg, 14 days, Day 14): 762 nM; Mean concentration (300 mg, 14 days, Day 14): 2312 nM; Tmax (both sexes, 30 mg, 14 days, Day 14, median (min–max)): 3 h; Cmax (both sexes, 30 mg, 14 days, Day 14, ≥ 60 years, mean (CV%)): 211 ng/mL; AUC(0-t) (both sexes, 30 mg, AUC 0–24h, 30 mg, 14 days, Day 14, mean (CV%)): 3580 ng·h/mL; half-life (both sexes, participants ≥ 60 years of age, single dose, read-out: mean terminal T 1/2): 81.4 to 109 h; concentration at 3 months (both sexes, 2-mg dose daily, participants ≥ 60 years): 11.9 ng/mL; concentration at 3 months (both sexes, 2-mg dose daily): 23 nM; concentration at 3 months (both sexes, 85-mg dose daily, participants ≥ 60 years): 425 ng/mL; concentration at 3 months (both sexes, 85-mg dose daily): 828 nM; free C max (human plasma, 85 mg, 3-month study): 48 nM; Tmax (2 mg, 3 months, Day 91, median (min–max)): 2.5 h; Cmax (2 mg, 3 months, Day 91, ≥ 60 years, mean (CV%)): 16.6 ng/mL; AUC(0-t) (2 mg, AUC 0–24h, 2 mg, 3 months, Day 91, mean (CV%)): 313 ng·h/mL; Tmax (10 mg, 3 months, Day 91, median (min–max)): 2.5 h; Cmax (10 mg, 3 months, Day 91, ≥ 60 years, mean (CV%)): 81 ng/mL; Tmax (10 mg, 14 days, Day 14, median (min–max)): 2.53 h; Cmax (10 mg, 14 days, Day 14, ≥ 60 years, mean (CV%)): 84.3 ng/mL; AUC(0-t) (10 mg, AUC 0–24h, 10 mg, 3 months, Day 91, mean (CV%)): 1500 ng·h/mL; AUC(0-t) (10 mg, AUC 0–24h, 10 mg, 14 days, Day 14, mean (CV%)): 1400 ng·h/mL; Cmax (10 mg, single dose 10 mg, adults (6), mean (%CV), read-out: Cmax): 20.9 ng/mL; Tmax (10 mg, single dose 10 mg, adults (6), median (min–max), read-out: Tmax): 4 h; AUC(0-inf) (10 mg, single dose 10 mg, adults (n = 5), mean (%CV)): 948 ng·h/mL; half-life (10 mg, single dose 10 mg, adults (n = 5), mean (%CV), read-out: T1/2 (converted)): 61.3 h; Cmax (10 mg, single dose 10 mg, adults ≥ 60 years (6), mean (%CV), read-out: Cmax): 16 ng/mL; Tmax (10 mg, single dose 10 mg, adults ≥ 60 years (6), median (min–max), read-out: Tmax): 4.02 h; AUC(0-inf) (30 mg, single dose 30 mg, adults (12), mean (%CV)): 3070 ng·h/mL; Cmax (30 mg, single dose 30 mg, adults (12), mean (%CV), read-out: Cmax): 65.7 ng/mL; half-life (30 mg, single dose 30 mg, adults (12), mean (%CV), read-out: T1/2 (converted)): 64.3 h; Tmax (30 mg, single dose 30 mg, adults (12), median (min–max), read-out: Tmax): 3.5 h; Tmax (35 mg, 3 months, Day 91, median (min–max)): 2.5 h; Cmax (35 mg, 3 months, Day 91, ≥ 60 years, mean (CV%)): 237 ng/mL; AUC(0-t) (35 mg, AUC 0–24h, 35 mg, 3 months, Day 91, mean (CV%)): 4450 ng·h/mL; AUC(0-t) (75 mg, AUC 0–72h, food effect, 75 mg Fasted (10), adults, mean (%CV)): 4450 ng·h/mL; AUC(0-t) (75 mg, AUC 0–72h, food effect, 75 mg Fed (10), adults, mean (%CV)): 4870 ng·h/mL; Cmax (75 mg, food effect, 75 mg Fasted (10), adults, mean (%CV), read-out: Cmax): 164 ng/mL; Tmax (75 mg, food effect, 75 mg Fasted (10), adults, median (min–max), read-out: Tmax): 3.5 h; Cmax (75 mg, food effect, 75 mg Fed (10), adults, mean (%CV), read-out: Cmax): 179 ng/mL; Tmax (75 mg, food effect, 75 mg Fed (10), adults, median (min–max), read-out: Tmax): 4.04 h; Tmax (85 mg, 3 months, Day 91, median (min–max)): 2.5 h; Cmax (85 mg, 3 months, Day 91, ≥ 60 years, mean (CV%)): 602 ng/mL; AUC(0-t) (85 mg, AUC 0–24h, 85 mg, 3 months, Day 91, mean (CV%)): 11200 ng·h/mL; Tmax (90 mg, 14 days, Day 14, median (min–max)): 3 h; Cmax (90 mg, 14 days, Day 14, ≥ 60 years, mean (CV%)): 581 ng/mL; AUC(0-t) (90 mg, AUC 0–24h, 90 mg, 14 days, Day 14, mean (CV%)): 9380 ng·h/mL
